Columns and labels:
[1] = molecular target: T1, Prostaglandin G/H synthase 1 (Ovis aries) (UniProt P05979); experiment: Inhibition of sheep COX1 at 10 uM using arachidonic acid as substrate preincubated for 15 mins followed by substrate addition for 2 mins by Cayman based fluorescence assay
T1 sequence (whole entry): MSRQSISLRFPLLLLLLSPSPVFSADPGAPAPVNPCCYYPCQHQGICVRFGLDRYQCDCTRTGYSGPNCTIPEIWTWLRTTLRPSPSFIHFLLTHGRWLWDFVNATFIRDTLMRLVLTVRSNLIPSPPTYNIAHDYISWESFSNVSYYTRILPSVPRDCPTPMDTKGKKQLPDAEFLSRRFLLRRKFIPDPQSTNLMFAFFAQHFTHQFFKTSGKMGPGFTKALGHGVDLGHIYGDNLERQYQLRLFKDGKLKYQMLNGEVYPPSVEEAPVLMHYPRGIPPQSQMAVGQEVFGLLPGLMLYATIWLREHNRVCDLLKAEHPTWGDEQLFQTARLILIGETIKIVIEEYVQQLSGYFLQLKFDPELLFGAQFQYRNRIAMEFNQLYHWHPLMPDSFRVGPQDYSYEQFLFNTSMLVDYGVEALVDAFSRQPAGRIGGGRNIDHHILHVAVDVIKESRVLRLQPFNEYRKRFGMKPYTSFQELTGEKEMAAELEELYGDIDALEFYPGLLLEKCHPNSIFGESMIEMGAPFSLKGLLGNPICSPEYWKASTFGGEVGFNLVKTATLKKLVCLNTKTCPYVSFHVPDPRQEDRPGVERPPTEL

[2] = molecular target: T2, Histone deacetylase 8 (Homo sapiens, UniProt Q9BY41); experiment: Inhibition of HDAC8 (unknown origin) after 2.5 hrs by SAMDI mass spectroscopic analysis
T2 sequence (Q9BY41 whole entry): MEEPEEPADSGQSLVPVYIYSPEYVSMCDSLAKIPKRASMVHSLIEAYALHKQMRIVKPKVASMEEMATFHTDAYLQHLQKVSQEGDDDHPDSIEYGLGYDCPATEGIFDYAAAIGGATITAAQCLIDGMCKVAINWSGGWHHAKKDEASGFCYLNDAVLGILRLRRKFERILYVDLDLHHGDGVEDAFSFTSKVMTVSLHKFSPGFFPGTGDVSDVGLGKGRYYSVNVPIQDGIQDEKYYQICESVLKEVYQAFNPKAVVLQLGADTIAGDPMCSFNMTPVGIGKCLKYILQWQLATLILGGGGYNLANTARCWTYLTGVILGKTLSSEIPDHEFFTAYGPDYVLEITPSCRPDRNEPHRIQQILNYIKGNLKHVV

[3] = molecular target: T3, Prostaglandin G/H synthase 1 (Ovis aries, UniProt P05979); experiment: Inhibition of sheep COX1 using arachidonic acid as substrate preincubated for 15 mins followed by substrate addition for 2 mins by Cayman based fluorescence assay
T3 sequence (P05979 whole entry): T1 sequence (whole entry)

[4] = molecular target: T4, Protein deacetylase HDAC6 (Homo sapiens, UniProt Q9UBN7); experiment: Inhibition of HDAC6 (unknown origin) after 20 hrs by SAMDI mass spectroscopic analysis
T4 sequence (Q9UBN7 whole entry): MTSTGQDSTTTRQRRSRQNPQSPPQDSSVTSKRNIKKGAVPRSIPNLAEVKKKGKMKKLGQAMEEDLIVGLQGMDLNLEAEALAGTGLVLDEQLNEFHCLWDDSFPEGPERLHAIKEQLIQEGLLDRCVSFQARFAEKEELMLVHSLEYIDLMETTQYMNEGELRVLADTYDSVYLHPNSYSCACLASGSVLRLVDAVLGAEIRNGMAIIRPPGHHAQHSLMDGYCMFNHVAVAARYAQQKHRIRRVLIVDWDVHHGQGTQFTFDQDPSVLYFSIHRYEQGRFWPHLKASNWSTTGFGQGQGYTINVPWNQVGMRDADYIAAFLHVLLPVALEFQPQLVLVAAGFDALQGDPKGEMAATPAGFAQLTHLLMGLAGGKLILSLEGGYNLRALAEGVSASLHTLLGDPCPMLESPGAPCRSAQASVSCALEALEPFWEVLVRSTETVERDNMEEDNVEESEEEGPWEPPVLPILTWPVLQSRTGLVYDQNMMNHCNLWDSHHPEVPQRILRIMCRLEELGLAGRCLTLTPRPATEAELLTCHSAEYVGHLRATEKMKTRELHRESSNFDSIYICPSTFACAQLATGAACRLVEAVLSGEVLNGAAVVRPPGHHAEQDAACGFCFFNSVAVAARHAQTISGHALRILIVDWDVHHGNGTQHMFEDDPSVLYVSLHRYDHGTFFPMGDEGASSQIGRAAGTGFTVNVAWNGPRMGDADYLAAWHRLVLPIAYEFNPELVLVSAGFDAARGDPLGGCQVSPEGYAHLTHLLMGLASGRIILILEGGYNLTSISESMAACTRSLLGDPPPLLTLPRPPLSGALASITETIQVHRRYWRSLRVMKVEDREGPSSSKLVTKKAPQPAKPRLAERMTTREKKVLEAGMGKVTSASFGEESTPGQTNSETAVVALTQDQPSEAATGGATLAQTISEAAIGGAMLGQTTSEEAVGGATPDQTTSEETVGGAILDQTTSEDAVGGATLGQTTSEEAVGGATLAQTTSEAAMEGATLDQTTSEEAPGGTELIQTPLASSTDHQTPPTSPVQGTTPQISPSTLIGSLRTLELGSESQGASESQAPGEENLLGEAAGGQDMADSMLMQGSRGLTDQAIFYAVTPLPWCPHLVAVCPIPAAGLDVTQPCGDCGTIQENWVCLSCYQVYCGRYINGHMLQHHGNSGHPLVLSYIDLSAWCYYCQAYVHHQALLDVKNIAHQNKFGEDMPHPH

[5] = molecular target: T5, Prostaglandin G/H synthase 2 (Homo sapiens) (UniProt P35354); experiment: Inhibition of recombinant human COX2 at 10 uM using arachidonic acid as substrate preincubated for 15 mins followed by substrate addition for 2 mins by Cayman based fluorescence assay
T5 sequence (whole entry): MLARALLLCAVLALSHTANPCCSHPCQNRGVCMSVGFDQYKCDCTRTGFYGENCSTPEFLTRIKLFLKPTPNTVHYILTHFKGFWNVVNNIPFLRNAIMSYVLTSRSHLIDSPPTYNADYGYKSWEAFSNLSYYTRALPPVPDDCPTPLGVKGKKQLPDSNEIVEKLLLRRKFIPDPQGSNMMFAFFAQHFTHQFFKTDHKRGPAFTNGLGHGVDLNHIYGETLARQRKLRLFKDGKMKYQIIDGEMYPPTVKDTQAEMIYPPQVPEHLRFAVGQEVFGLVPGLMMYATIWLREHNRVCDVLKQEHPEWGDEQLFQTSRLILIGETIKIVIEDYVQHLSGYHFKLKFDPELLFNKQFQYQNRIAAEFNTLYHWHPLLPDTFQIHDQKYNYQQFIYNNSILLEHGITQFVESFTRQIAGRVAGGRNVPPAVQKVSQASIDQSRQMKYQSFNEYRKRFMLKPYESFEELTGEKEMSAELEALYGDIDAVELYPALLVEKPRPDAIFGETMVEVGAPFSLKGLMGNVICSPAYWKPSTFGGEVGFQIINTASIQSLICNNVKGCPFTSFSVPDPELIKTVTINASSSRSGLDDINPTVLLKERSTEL

[6] = Cytotoxicity against African green monkey Vero cells assessed as cell growth inhibition after 72 hrs by MTT assay; assay type: toxicity, cell-based; details: African green monkey (Chlorocebus sabaeus)
[7] = Cytotoxicity against human LNCAP cells assessed as cell growth inhibition after 72 hrs by MTT assay; assay type: functional, cell-based
[8] = Cytotoxicity against human HCT116 cells assessed as cell growth inhibition after 72 hrs by MTT assay; assay type: functional, cell-based; details: HCT-116, 72 h
[9] = molecular target: T6, Prostaglandin G/H synthase 2 (Homo sapiens, UniProt P35354); experiment: Inhibition of recombinant human COX2 using arachidonic acid as substrate preincubated for 15 mins followed by substrate addition for 2 mins by Cayman based fluorescence assay
T6 sequence (P35354 whole entry): T5 sequence (whole entry)

[10] = molecular target: Histone deacetylase 1 (Homo sapiens, UniProt Q13547); experiment: Inhibition of HDAC1 (unknown origin) after 24 hrs by SAMDI mass spectroscopic analysis
Sequence of Histone deacetylase 1 (Q13547 whole entry): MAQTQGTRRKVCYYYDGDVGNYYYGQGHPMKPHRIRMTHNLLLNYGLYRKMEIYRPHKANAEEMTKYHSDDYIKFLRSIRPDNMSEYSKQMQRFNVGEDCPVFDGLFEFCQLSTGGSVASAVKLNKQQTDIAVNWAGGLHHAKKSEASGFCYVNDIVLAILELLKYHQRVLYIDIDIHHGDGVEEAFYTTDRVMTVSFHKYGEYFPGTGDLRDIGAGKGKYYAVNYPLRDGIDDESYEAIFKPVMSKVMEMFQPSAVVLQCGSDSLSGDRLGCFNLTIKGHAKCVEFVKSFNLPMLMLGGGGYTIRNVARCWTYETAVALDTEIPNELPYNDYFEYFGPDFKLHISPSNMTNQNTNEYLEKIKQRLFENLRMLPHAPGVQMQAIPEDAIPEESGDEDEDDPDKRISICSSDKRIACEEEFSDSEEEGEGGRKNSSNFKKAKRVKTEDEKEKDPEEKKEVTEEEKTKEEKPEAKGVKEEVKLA

[11] = molecular target: Histone deacetylase 3 (Homo sapiens, UniProt O15379); experiment: Inhibition of HDAC3 (unknown origin) after 5 hrs by SAMDI mass spectroscopic analysis
Sequence of Histone deacetylase 3 (O15379 whole entry): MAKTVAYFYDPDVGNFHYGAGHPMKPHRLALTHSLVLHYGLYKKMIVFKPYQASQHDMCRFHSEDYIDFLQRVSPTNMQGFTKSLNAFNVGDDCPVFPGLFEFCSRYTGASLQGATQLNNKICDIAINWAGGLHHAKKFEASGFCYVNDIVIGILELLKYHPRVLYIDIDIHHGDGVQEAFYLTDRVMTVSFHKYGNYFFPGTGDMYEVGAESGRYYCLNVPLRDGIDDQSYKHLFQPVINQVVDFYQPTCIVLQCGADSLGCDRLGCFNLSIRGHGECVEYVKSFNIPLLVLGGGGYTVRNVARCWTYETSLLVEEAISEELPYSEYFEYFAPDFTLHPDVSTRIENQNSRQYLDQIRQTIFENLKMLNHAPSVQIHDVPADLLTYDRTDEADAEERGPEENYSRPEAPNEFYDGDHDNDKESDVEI

[12] = molecular target: T7, Histone deacetylase 2 (Homo sapiens, UniProt Q92769); experiment: Inhibition of HDAC2 (unknown origin) after 24 hrs by SAMDI mass spectroscopic analysis
T7 sequence (Q92769 whole entry): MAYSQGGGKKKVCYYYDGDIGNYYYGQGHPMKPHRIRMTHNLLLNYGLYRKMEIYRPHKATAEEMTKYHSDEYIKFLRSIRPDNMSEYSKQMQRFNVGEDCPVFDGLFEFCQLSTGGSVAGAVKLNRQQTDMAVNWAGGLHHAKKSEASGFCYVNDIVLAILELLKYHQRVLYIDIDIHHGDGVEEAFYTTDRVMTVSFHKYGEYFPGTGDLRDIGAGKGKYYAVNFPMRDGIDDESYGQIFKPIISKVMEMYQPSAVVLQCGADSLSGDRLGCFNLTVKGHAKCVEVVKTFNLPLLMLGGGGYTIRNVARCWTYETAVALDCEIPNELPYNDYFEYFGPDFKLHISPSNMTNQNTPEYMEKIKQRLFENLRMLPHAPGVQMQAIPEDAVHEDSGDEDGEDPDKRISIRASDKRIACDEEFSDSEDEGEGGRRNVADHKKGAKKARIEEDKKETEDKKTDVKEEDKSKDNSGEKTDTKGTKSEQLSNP

[13] = Cytotoxicity against human MCF7 cells assessed as cell growth inhibition after 72 hrs by MTT assay; assay type: functional, cell-based; details: MCF7, 72 h
[14] = molecular target: T7, Histone deacetylase 2; experiment: Inhibition of HDAC2 (unknown origin) at 10 uM after 24 hrs by SAMDI mass spectroscopic analysis
[15] = Cytotoxicity against human DU145 cells assessed as cell growth inhibition after 72 hrs by MTT assay; assay type: functional, cell-based; details: DU-145, 72 h
[16] = Cytotoxicity against human A549 cells assessed as cell growth inhibition after 72 hrs by MTT assay; assay type: functional, cell-based; details: A549, 72 h
[17] = test system: LNCaP; experiment: Induction of cell cycle arrest in human LNCAP cells assessed as accumulation at S phase at 2.5 uM after 24 hrs by propidium iodide staining based FACS analysis (reference value: […]); assay type: functional
[18] = Cytotoxicity against human HeLa cells assessed as cell growth inhibition after 72 hrs by MTT assay
[19] = test system: LNCaP; experiment: Induction of cell cycle arrest in human LNCAP cells assessed as accumulation at G2 phase at 2.5 uM after 24 hrs by propidium iodide staining based FACS analysis (reference value: 1.08%); assay type: functional
[20] = test system: LNCaP; experiment: Induction of cell cycle arrest in human LNCAP cells assessed as accumulation at lesser G1 phase at 2.5 uM after 24 hrs by propidium iodide staining based FACS analysis (reference value: 1.59%); assay type: functional
[21] = test system: LNCaP; experiment: Induction of cell cycle arrest in human LNCAP cells assessed as accumulation at greater G2 phase at 2.5 uM after 24 hrs by propidium iodide staining based FACS analysis (reference value: 0.20%); assay type: functional
[22] = test system: LNCaP; experiment: Induction of cell cycle arrest in human LNCAP cells assessed as accumulation at G1 phase at 2.5 uM after 24 hrs by propidium iodide staining based FACS analysis (reference value: 69.5%); assay type: functional

| SMILES | inhibition [1] [%] | IC50 [2] [nM] | IC50 [4] [nM] | inhibition [5] [%] | IC50 [10] [nM] | IC50 [11] [nM] | IC50 [12] [nM] | IC50 at 72 h [6] [nM] | IC50 [7] [nM] | IC50 [8] [nM] | IC50 [13] [nM] | IC50 [16] [nM] | other results |
| --- | --- | --- | --- | --- | --- | --- | --- | --- | --- | --- | --- | --- | --- |
| COC(=O)Cc1c(C)n(Cc2ccc(-c3cn(CCCCCCCC(=O)NO)nn3)cc2)c2ccc(OC)cc12 | 7.08 | 394 | 5 | 78.2 | 251 | 181 | 209 | 5730 | 1530 | 1280 |  |  | IC50 [3]: 12000 nM; IC50 [9]: 4580 nM |
| COc1ccc2c(c1)c(CC(=O)NCCCCCCCC(=O)NO)c(C)n2C(=O)c1ccc(Cl)cc1 | 42.8 | 707 | 50 | 96.2 | 1760 | 283 |  | 34700 | 6460 | 24800 | 25100 |  | inhibition [14]: 43%; IC50 [15]: > 20000 nM |
| Cc1ccc(-c2cc(C(=O)NCCCCCC(=O)NO)nn2-c2ccc(S(N)(=O)=O)cc2)cc1 |  | 544 | 92 | 19.1 | 400 | 191 | 232 | > 100000 |  |  | > 100000 | > 100000 |  |
| COC(=O)Cc1c(C)n(Cc2ccc(-c3cn(CCCCCC(=O)NO)nn3)cc2)c2ccc(OC)cc12 |  | 672 | 6830 | 11.5 | 778 | 224 | 1360 | 37800 | > 20000 | 9310 | 14200 |  |  |
| Cc1ccc(-c2cc(C(=O)NCCCCCCC(=O)NO)nn2-c2ccc(S(N)(=O)=O)cc2)cc1 | 26.4 | 520 | 83 | 71.1 | 208 | 333 | 294 | > 100000 | > 20000 | 25000 | > 100000 | > 100000 |  |
| COc1ccc2c(c1)c(CC(=O)NCCCCCC(=O)NO)c(C)n2C(=O)c1ccc(Cl)cc1 | 40.2 | 345 | 49 | 95.1 | 1810 | 722 |  |  | > 20000 | 16100 | > 100000 | 31900 | inhibition [14]: 41% |
| O=C(CCCCCCC(=O)Nc1ccccc1)NO [VORINOSTAT] |  |  |  |  |  |  |  | 1030 |  |  |  |  | Activity [17]: 18.4%; IC50 [18]: 2120 nM; Activity [19]: 0.69%; Activity [20]: -4.88%; Activity [21]: 0.31%; Activity [22]: 85.6% |

The next lines start with results.

| inhibition [1] [%] | IC50 [2] [nM] | IC50 [4] [nM] | inhibition [5] [%] | IC50 [10] [nM] | IC50 [11] [nM] | IC50 [12] [nM] | SMILES | IC50 at 72 h [6] [nM] | IC50 [7] [nM] | IC50 [8] [nM] | IC50 [13] [nM] | IC50 [16] [nM] | other results |
| --- | --- | --- | --- | --- | --- | --- | --- | --- | --- | --- | --- | --- | --- |
| 26.1 | 989 | 61 | 95.6 | 968 | 256 | 929 | Cc1ccc(-c2cc(C(F)(F)F)nn2-c2ccc(S(=O)(=O)NCCCCCCCC(=O)NO)cc2)cc1 | 6610 | 2110 |  | 4580 | 8150 | IC50 [15]: 10100 nM |
| 16.2 | 226 | 76 | 97.7 | 1870 | 1020 | 2060 | Cc1ccc(-c2cc(C(F)(F)F)nn2-c2ccc(S(=O)(=O)NCCCCCC(=O)NO)cc2)cc1 | 6830 | 8880 | 8740 | 7770 | 10400 |  |
|  | 697 | 183 | 66.9 | 60 | 33 | 32 | Cc1ccc(-c2cc(C(=O)NCCCCCCCC(=O)NO)nn2-c2ccc(S(N)(=O)=O)cc2)cc1 | 12100 | > 20000 | 7120 | 59500 | 34100 |  |
